Assay in all cases: biochemical
Common to all, as to set-up: KINOMEscan active-site competition binding, percent of control (100 = no competition)
Settings in all cases: competition binding, percent control

Assay [1] has as its target TNNI3K (Homo sapiens, UniProt Q59H18). An excerpt: (§1) Given the potential for the use of LIMK inhibitors as cancer chemotherapeutics, a high-throughput drug discovery and medicinal chemistry program was undertaken. Details of the screening methodology and description of initial hit matter were described in [38]. […] Details of their chemical synthesis are described in Charles et al.. […] These and additional physiochemical parameters are in Supplemental Table 5. […] Kinases inhibited >25% to 50% have yellow circles, 51% to 75% have orange circles, and >76% have red circles. In each case, the size of the circle is proportional to percentage inhibition. LIMK1 and LIMK2 positions are indicated in blue. Illustration reproduced courtesy of Cell Signaling Technology, Inc. (www.cellsignal.com). B. CRT0105950 structure and kinome selectivity mapping as described above. C.

Assay [2] deals with EGFR(S752-I759del) (Homo sapiens, UniProt P00533, DEL752-759).
EGFR(S752-I759del), sequence (P00533 with tags, fused parts or gaps DEL752-759): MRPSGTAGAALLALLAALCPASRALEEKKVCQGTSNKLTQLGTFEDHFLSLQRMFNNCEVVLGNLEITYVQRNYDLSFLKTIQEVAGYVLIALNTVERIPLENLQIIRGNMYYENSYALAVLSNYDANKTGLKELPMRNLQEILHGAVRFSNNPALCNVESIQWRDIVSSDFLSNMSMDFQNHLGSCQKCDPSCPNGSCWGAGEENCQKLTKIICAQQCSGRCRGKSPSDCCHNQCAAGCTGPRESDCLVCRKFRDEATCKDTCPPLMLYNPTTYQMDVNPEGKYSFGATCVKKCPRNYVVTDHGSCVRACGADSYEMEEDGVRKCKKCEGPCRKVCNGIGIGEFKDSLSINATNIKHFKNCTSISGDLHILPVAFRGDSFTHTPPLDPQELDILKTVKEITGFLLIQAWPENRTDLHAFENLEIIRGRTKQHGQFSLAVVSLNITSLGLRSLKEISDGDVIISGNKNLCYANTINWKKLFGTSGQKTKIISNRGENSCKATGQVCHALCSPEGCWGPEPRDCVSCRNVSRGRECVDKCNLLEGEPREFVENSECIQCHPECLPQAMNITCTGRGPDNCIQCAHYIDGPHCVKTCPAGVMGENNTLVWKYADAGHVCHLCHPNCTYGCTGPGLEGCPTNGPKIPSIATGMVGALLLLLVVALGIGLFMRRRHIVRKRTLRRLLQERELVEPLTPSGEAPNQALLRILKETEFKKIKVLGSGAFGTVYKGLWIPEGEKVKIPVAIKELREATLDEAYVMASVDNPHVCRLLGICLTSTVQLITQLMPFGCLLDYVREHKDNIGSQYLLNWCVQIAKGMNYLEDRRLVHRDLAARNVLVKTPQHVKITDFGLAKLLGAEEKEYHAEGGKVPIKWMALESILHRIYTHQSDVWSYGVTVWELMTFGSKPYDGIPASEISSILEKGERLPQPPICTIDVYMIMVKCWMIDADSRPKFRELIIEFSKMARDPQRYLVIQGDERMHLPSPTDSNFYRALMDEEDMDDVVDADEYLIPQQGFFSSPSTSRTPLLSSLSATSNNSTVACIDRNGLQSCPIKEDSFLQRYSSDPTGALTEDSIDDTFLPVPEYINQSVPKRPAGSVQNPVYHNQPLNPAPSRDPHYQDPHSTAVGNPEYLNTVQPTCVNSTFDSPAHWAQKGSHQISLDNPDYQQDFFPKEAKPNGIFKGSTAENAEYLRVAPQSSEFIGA
Source text: as §1

For assay [3], the target named is FYN (Homo sapiens, UniProt P06241).
FYN, sequence (P06241 whole entry): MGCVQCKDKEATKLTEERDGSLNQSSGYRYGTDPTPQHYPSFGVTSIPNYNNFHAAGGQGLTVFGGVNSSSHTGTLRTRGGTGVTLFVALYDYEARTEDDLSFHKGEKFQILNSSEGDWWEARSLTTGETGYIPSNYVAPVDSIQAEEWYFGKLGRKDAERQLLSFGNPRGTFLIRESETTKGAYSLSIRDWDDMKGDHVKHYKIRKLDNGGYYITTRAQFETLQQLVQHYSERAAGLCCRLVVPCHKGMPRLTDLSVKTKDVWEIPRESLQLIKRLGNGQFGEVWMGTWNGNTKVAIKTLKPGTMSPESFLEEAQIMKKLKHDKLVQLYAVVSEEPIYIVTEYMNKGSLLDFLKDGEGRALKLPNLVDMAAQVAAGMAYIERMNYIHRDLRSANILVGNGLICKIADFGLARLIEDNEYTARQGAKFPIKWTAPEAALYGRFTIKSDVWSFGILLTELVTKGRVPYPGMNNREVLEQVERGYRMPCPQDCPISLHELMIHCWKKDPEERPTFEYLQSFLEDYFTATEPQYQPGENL
Source text: as §1

The target in assay [4] is KIT(L576P) (Homo sapiens, UniProt P10721, L576P).
Source text: as §1

The target of assay [5] is NEK9 (Homo sapiens, UniProt Q8TD19).
Source text: as §1

Assay [6] deals with EGFR(G719S) (Homo sapiens, UniProt P00533, G719S).
Source text: as §1

Assay [7] has as its target T1, FAK (Homo sapiens, UniProt Q05397).
T1 construct: gene PTK2
Source text: as §1

Assay [8] concerns the target IRAK1 (Homo sapiens, UniProt P51617).
Source text: as §1

For assay [9], the target named is T2, MST4 (Homo sapiens, UniProt Q9P289).
T2 construct: gene STK26
Source text: as §1

In assay [10] the target is T3, CDC2L5 (Homo sapiens, UniProt Q14004).
T3 construct: gene CDK13
Source text: as §1

Assay [11] concerns the target T4, ABL1(E255K)-phosphorylated (Homo sapiens, UniProt P00519, E255K).
T4 construct: phosphorylated
Source text: as §1

In assay [12] the target is EPHB3 (Homo sapiens, UniProt P54753).
EPHB3, sequence (P54753 whole entry): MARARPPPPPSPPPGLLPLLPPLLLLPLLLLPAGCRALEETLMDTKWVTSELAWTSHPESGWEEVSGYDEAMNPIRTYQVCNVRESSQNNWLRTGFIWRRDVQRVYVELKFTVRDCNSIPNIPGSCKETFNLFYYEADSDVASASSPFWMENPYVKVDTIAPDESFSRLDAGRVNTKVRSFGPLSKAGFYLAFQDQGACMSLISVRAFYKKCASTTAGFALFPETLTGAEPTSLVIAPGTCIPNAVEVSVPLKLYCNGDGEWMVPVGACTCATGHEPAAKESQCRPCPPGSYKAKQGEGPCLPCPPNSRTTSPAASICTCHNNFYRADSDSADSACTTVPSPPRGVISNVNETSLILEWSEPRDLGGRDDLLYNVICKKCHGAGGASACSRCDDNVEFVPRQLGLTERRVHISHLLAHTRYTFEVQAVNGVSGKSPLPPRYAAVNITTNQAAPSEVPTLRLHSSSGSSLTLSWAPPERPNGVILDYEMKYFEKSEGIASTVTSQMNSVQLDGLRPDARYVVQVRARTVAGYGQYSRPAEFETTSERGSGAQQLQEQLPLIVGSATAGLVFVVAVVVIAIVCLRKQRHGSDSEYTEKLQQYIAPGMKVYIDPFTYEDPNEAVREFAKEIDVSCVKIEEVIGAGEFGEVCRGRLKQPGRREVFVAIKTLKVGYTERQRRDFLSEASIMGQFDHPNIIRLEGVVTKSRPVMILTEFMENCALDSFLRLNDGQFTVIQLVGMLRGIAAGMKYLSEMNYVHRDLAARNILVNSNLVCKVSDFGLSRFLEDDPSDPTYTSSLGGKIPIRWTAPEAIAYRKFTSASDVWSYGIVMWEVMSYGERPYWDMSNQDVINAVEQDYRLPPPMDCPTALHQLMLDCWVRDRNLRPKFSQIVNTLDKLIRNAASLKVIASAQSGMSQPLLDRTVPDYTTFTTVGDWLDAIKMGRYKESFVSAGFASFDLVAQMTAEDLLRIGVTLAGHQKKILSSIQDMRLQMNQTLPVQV
Source text: as §1

Assay [13] addresses CLK4 (Homo sapiens, UniProt Q9HAZ1).
Source text: as §1

In assay [14] the target is T5, VEGFR2 (Homo sapiens, UniProt P35968).
T5 construct: gene KDR
Source text: as §1

Assay [15] addresses T6, DRAK1 (Homo sapiens, UniProt Q9UEE5).
T6 construct: gene STK17A
Source text: as §1

Assay [16] deals with AKT3 (Homo sapiens, UniProt Q9Y243).
AKT3, sequence (Q9Y243 whole entry): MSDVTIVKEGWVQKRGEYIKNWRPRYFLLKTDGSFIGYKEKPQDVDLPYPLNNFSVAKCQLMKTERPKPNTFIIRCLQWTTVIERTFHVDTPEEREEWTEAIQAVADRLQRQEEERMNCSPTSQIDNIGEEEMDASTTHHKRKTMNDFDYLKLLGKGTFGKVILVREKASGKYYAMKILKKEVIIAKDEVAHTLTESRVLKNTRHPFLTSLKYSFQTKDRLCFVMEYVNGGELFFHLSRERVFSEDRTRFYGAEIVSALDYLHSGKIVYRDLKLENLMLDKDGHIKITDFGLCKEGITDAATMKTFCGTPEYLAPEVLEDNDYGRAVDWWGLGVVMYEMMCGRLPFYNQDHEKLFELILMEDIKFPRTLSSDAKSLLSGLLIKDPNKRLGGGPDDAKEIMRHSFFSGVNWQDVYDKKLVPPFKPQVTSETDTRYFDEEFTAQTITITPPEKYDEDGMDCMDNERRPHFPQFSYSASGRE
Source text: as §1

Assay [17] addresses T7, LOK (Homo sapiens, UniProt O94804).
T7 construct: gene STK10
Source text: as §1

Assay [18] deals with VRK2 (Homo sapiens, UniProt Q86Y07).
Source text: as §1

Assay [19] has as its target CDKL2 (Homo sapiens, UniProt Q92772).
Source text: as §1

The target in assay [20] is ANKK1 (Homo sapiens, UniProt Q8NFD2).
Source text: as §1

The target in assay [21] is PIP5K1C (Homo sapiens, UniProt O60331).
Source text: as §1

For assay [22], the target named is T8, OSR1 (Homo sapiens, UniProt O95747).
T8 construct: gene OXSR1
Source text: as §1

In assay [23] the target is T9, ABL1(Y253F)-phosphorylated (Homo sapiens, UniProt P00519, Y253F).
T9 construct: phosphorylated
Source text: as §1

Structures are written as SMILES.

TNNI3K, sequence (Q59H18 whole entry): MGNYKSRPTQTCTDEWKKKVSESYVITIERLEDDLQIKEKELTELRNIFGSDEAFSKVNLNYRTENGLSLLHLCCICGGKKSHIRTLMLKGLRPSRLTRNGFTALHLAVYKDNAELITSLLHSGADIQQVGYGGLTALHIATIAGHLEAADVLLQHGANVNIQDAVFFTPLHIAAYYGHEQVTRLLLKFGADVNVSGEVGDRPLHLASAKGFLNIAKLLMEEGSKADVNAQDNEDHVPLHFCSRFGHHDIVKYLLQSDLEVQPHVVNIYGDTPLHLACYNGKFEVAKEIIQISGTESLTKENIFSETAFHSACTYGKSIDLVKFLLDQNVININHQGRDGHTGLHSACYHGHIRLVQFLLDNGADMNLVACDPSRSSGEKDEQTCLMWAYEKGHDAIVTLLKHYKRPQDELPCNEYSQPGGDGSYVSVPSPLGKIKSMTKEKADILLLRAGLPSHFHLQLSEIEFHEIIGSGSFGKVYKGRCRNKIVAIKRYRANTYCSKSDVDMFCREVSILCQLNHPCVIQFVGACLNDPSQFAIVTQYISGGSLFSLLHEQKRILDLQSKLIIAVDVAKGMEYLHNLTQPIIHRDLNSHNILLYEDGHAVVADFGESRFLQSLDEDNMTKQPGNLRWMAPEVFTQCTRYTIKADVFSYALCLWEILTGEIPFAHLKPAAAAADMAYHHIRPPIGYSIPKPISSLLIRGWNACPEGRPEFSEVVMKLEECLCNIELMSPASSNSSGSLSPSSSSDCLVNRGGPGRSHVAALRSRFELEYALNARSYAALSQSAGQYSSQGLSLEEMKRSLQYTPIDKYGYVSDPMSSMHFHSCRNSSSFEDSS
T6 sequence (Q9UEE5 whole entry): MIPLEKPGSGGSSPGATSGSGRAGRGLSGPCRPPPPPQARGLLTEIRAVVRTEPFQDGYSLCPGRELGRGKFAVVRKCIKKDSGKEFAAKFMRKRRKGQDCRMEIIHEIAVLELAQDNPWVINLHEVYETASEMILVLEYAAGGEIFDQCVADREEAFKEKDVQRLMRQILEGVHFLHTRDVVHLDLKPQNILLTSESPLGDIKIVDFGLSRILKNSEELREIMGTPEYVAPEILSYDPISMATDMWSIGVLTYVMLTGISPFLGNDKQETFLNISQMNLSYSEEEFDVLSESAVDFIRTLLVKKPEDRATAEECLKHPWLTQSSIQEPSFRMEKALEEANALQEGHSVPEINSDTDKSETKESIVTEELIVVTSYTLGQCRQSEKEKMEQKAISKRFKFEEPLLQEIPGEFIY
CLK4, sequence (Q9HAZ1 whole entry): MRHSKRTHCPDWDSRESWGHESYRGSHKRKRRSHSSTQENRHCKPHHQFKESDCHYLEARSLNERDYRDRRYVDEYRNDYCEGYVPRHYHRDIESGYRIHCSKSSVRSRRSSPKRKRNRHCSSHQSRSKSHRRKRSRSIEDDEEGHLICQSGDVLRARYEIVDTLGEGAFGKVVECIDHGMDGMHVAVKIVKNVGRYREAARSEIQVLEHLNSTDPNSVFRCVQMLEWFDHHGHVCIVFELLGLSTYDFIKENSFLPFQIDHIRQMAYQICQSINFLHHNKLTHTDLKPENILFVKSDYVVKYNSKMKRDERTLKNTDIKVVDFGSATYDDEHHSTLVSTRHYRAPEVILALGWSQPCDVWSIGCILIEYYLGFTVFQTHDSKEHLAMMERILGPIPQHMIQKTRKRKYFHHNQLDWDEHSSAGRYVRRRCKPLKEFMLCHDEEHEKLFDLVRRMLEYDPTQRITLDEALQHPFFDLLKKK

As for `COc1ccc(-c2cnccc2-c2cnc(NC(=O)C(C)C)s2)c(C(F)(F)F)c1` [CRT0105446, N-{5-[3-(4-Methoxy-2-trifluoromethyl-phenyl)-pyridin-4-yl]-hiazol-2-yl}-isobutyramide], the remaining binding at 10 µM in assay [1] was 93%; in assay [2] it was 84%; in assay [3] it was 99%; in assay [4] it was 36%; in assay [5], 92%; in [6] it was 94%. The remaining binding at 10 µM in [7] came out at 100%; in [8], 94%; in assay [9], 61%; in assay [10] it was 14%; in assay [11], 78%; in assay [12] it was 83%. The remaining binding at 10 µM in [13] amounted to 100%; in assay [14], 73%; in assay [15], 81%; in assay [16], 100%; in assay [17] it was 100%; in assay [18] it was 95%. The remaining binding at 10 µM amounted to 2.2% in assay [19]; 99% in [20]; 60% in [21]; 100% in [22]; 89% in assay [23].
In the case of `Cc1ccc(-c2cnccc2-c2cnc(Nc3ccc(O)cc3)s2)c(Cl)c1` [CRT0105950, 4-{5-[3-(2-Chloro-4-methyl-phenyl)-pyridin-4-yl]-thiazol-2-ylamino}-phenol], the remaining binding at 10 µM in assay [1] was found to be 43%; in assay [2], 69%; in assay [3], 49%; in [4], 0.4%; in assay [5], 96%; in [6] it was 75%. Also, the remaining binding at 10 µM in [7] amounted to 33%; in assay [8], 56%; in [9] it was 37%; in assay [10] it was 26%; in [11], 79%; in assay [12] it was 96%. The remaining binding at 10 µM in assay [13] came out at 1.6%; in assay [14], 45%; in [15] it was 100%; in [16], 100%; in [17] it was 51%; in assay [18], 72%. For the same compound, the remaining binding at 10 µM was determined as 0.6% in [19]; 69% in assay [20]; 100% in assay [21]; 84% in assay [22]; 74% in [23].

(Values after article PMC4770715, “LIM kinase inhibitors disrupt mitotic microtubule organization and impair tumor cell proliferation” (Oncotarget, 2015).)
